# Data as given in US12649750B2, “Macrocyclic compounds, compositions, and methods of using thereof” (Sionna Therapeutics Inc., priority 2022, dated 2026).
# How the values were obtained:
# [1] = biological target: T1, NBD1 (Homo sapiens, UniProt P13569); experiment: Aggregation analysis using differential static light scattering (DSLS), thermal stability of NBD1 (ΔTagg); format: binding; conditions: ΔTagg versus DMSO control, NBD1 0.2 mg/ml
# T1 construct: Purified recombinant NBD1 was produced using previously described methods; made in house
# T1 sequence (P13569 423-646 limits assumed): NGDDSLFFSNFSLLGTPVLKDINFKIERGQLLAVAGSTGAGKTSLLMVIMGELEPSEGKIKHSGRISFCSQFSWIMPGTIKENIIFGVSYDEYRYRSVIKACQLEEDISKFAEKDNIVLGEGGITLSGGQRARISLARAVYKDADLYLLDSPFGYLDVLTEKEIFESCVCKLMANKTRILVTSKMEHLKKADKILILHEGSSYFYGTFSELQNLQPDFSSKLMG
# Outline: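 Purified recombinant NBD1 at 0.2 mg/ml in Tris buffer pH7.6 with 2 mM ATP, 5 mM MgCl2, 2 mM DTT and 1% glycerol was mixed with DMSO-dissolved compounds under mineral oil. Plates were heated at 1° C. per minute to 70° C., light scattering imaged every 0.5° C.; Tagg from curve inflection, minus DMSO-control mean.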
# [2] = biological target: T2, CFTR (Homo sapiens, UniProt P13569, DEL508-508); experiment: TECC24 AUC fold over DMSO @10 μM, CFTR-mediated transepithelial chloride transport in CF-HBE cells; format: cell-based; conditions: test agent AUC divided by DMSO vehicle AUC, primary CF-HBE cells, ΔF508 homozygous donor, 48 hours incubation
# T2 construct: Primary human bronchial epithelial cells from a ΔF508 homozygous CF donor; host or cells: primary human bronchial epithelial cells (CF-HBE), ΔF508 homozygous donor
# T2 sequence (P13569 with tags, fused parts or gaps DEL508-508): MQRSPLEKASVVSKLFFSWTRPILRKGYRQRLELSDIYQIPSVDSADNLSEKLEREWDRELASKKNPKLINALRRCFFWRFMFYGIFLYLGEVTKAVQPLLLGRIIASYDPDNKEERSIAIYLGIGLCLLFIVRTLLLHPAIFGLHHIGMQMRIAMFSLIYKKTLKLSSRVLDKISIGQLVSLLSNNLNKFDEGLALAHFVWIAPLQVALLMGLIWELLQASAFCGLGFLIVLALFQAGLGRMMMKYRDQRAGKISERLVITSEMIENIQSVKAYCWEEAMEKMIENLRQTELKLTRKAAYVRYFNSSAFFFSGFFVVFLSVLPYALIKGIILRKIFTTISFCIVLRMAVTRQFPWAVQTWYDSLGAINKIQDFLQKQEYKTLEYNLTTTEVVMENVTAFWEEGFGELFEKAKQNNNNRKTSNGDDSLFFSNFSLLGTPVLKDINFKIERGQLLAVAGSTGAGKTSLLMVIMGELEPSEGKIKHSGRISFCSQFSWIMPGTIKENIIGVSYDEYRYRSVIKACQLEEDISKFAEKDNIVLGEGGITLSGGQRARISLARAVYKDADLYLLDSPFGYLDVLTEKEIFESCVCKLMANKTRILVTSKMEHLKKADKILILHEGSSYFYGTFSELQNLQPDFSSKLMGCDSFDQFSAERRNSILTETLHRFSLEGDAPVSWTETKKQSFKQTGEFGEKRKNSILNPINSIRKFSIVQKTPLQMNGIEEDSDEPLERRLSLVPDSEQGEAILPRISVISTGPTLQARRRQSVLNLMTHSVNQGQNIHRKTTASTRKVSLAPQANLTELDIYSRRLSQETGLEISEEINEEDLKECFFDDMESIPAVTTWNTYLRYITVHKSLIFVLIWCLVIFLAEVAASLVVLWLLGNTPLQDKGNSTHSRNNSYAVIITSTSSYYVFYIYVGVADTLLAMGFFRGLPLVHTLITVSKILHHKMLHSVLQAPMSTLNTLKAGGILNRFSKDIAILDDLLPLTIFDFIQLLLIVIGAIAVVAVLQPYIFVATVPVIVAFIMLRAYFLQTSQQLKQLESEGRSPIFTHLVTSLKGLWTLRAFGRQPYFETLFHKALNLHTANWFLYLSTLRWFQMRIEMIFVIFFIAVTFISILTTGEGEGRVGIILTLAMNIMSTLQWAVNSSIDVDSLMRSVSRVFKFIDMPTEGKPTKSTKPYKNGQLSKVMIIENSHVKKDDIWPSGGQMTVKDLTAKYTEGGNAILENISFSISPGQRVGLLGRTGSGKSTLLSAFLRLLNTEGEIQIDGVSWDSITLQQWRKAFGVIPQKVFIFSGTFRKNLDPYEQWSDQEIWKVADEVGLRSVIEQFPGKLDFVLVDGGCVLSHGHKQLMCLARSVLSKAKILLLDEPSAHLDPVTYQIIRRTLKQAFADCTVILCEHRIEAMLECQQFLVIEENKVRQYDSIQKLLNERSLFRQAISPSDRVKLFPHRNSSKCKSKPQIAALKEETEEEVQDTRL
# Outline: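 Primary ΔF508-homozygous CF bronchial epithelial cells on inserts were incubated 48 h at 36.5 °C with compound in IL-13-containing medium. VT and TEER were then recorded in current-clamp mode (pH 7.4 HEPES bath) with benzamil 10 μM, forskolin 10 μM, then CFTR inhibitor-172 20 μM. The IEQ AUC between forskolin and inhibitor was divided by vehicle AUC.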
SMILES,DSLS 3D (100 μM ΔT) [1],"TECC (AUC, 10 μM) [2]"
"[2H]C([2H])([2H])C1(c2cccc(CC3(C(=O)O)CC3)c2)CCCC(C)(C)CS(=O)(=O)CCc2c(c(F)cc3[nH]ccc23)Oc2ccc(F)c(c2)-c2nc1nn2C (single isomer, unassigned) [Compound 120B, 1-[[3-[22,28-difluoro-3,10,10-trimethyl-12,12-dioxo-6-(trideuteriomethyl)-24-oxa-12λ6-thia-3,4,19,30-tetrazapentacyclo[23.3.1.12,5.015,23.016,20]triaconta-1(29),2(30),4,15,17,20,22,25,27-nonaen-6-yl]phenyl]methyl]cyclopropanecarboxylic Acid]",A (an ΔTagg value less than or equal to 5 °C is marked “A”),A (a TECC value less than 12 is marked “A”)
"Cn1nc2nc1-c1cc(ccc1F)Oc1c(F)c(F)c3[nH]ccc3c1CCS(=O)(=O)CC(C)(C)CCCC2(C#N)c1cccc(CC2(C(=O)O)CC2)c1 (single isomer, unassigned) [Compound 121A, 1-[[3-(6-cyano-21,22,28-trifluoro-3,10,10-trimethyl-12,12-dioxo-24-oxa-12λ6-thia-3,4,19,30-tetrazapentacyclo[23.3.1.12,5.015,23.016,20]triaconta-1(29),2(30),4,15,17,20,22,25,27-nonaen-6-yl)phenyl]methyl]cyclopropanecarboxylic Acid]",C (a value greater than 10 °C and less than or equal to 25 °C is marked “C”),B (a value between 12-20 is marked “B”)
"Cn1nc2nc1-c1cc(ccc1F)Oc1c(F)c(F)c3[nH]ccc3c1CCS(=O)(=O)CC(C)(C)CCCC2(C#N)c1cccc(CC2(C(=O)O)CC2)c1 (single isomer, unassigned) [Compound 121B, 1-[[3-(6-cyano-21,22,28-trifluoro-3,10,10-trimethyl-12,12-dioxo-24-oxa-12λ6-thia-3,4,19,30-tetrazapentacyclo[23.3.1.12,5.015,23.016,20]triaconta-1(29),2(30),4,15,17,20,22,25,27-nonaen-6-yl)phenyl]methyl]cyclopropanecarboxylic Acid]",A (an ΔTagg value less than or equal to 5 °C is marked “A”),A (a TECC value less than 12 is marked “A”)
"Cn1nc2nc1-c1cc(ccc1F)Oc1c(F)cc3[nH]ccc3c1CCS(=O)(=O)CC(C)(C)CCCC2(C#N)c1cccc(CC2(C(=O)O)CC2)c1 (single isomer, unassigned) [Compound 122A, 1-[[3-(6-cyano-22,28-difluoro-3,10,10-trimethyl-12,12-dioxo-24-oxa-12λ6-thia-3,4,19,30-tetrazapentacyclo[23.3.1.12,5.015,23.016,20]triaconta-1(29),2(30),4,15,17,20,22,25,27-nonaen-6-yl)phenyl]methyl]cyclopropanecarboxylic Acid]",C (a value greater than 10 °C and less than or equal to 25 °C is marked “C”),A (a TECC value less than 12 is marked “A”)
"Cn1nc2nc1-c1cc(ccc1F)Oc1c(F)cc3[nH]ccc3c1CCS(=O)(=O)CC(C)(C)CCCC2(C#N)c1cccc(CC2(C(=O)O)CC2)c1 (single isomer, unassigned) [Compound 122B, 1-[[3-(6-cyano-22,28-difluoro-3,10,10-trimethyl-12,12-dioxo-24-oxa-12λ6-thia-3,4,19,30-tetrazapentacyclo[23.3.1.12,5.015,23.016,20]triaconta-1(29),2(30),4,15,17,20,22,25,27-nonaen-6-yl)phenyl]methyl]cyclopropanecarboxylic Acid]",A (an ΔTagg value less than or equal to 5 °C is marked “A”),A (a TECC value less than 12 is marked “A”)
"Cn1nc2nc1-c1cc(ccc1F)Oc1c(F)cc3[nH]ccc3c1CCS(=O)(=O)CC(C)(C)OCCC2(C#N)c1cccc(CC2(C(=O)O)CC2)c1 (single isomer, unassigned) [Compound 123A, 1-[[3-(6-cyano-22,28-difluoro-3,10,10-trimethyl-12,12-dioxo-9,24-dioxa-12λ6-thia-3,4,19,30-tetrazapentacyclo[23.3.1.12,5.015,23.016,20]triaconta-1(29),2(30),4,15,17,20,22,25,27-nonaen-6-yl)phenyl]methyl]cyclopropanecarboxylic Acid]",A (an ΔTagg value less than or equal to 5 °C is marked “A”),A (a TECC value less than 12 is marked “A”)
"Cn1nc2nc1-c1cc(ccc1F)Oc1c(F)cc3[nH]ccc3c1CCS(=O)(=O)CC(C)(C)OCCC2(C#N)c1cccc(CC2(C(=O)O)CC2)c1 (single isomer, unassigned) [Compound 123B, 1-[[3-(6-cyano-22,28-difluoro-3,10,10-trimethyl-12,12-dioxo-9,24-dioxa-12λ6-thia-3,4,19,30-tetrazapentacyclo[23.3.1.12,5.015,23.016,20]triaconta-1(29),2(30),4,15,17,20,22,25,27-nonaen-6-yl)phenyl]methyl]cyclopropanecarboxylic Acid]",C (a value greater than 10 °C and less than or equal to 25 °C is marked “C”),A (a TECC value less than 12 is marked “A”)
"CC(Cc1cccc(C2(C#N)CCCC(C)(C)CS(=O)(=O)CCc3c(c(F)cc4[nH]ccc34)Oc3ccc(F)c(c3)-c3nc2nn3C)c1F)C(=O)O (single isomer, unassigned) [Compound 124A, 3-[3-(6-cyano-22,28-difluoro-3,10,10-trimethyl-12,12-dioxo-24-oxa-12λ6-thia-3,4,19,30-tetrazapentacyclo-[23.3.1.12,5.015,23.016,20]triaconta-1(29),2(30),4,15,17,20,22,25,27-nonaen-6-yl)-2-fluoro-phenyl]-2-methyl-propanoic Acid]",C (a value greater than 10 °C and less than or equal to 25 °C is marked “C”),A (a TECC value less than 12 is marked “A”)
"CC(Cc1cccc(C2(C#N)CCCC(C)(C)CS(=O)(=O)CCc3c(c(F)cc4[nH]ccc34)Oc3ccc(F)c(c3)-c3nc2nn3C)c1F)C(=O)O (single isomer, unassigned) [Compound 124B, 3-[3-(6-cyano-22,28-difluoro-3,10,10-trimethyl-12,12-dioxo-24-oxa-12λ6-thia-3,4,19,30-tetrazapentacyclo-[23.3.1.12,5.015,23.016,20]triaconta-1(29),2(30),4,15,17,20,22,25,27-nonaen-6-yl)-2-fluoro-phenyl]-2-methyl-propanoic Acid]",B (a value above 5 °C and less than or equal to 10 °C is marked “B”),A (a TECC value less than 12 is marked “A”)
"C[C@@H](Cc1cccc(C2(C)CCCC(C)(C)CS(=O)(=O)CCc3c(c(F)cc4[nH]ccc34)C(=O)c3ccc(F)c(c3)-c3nc2nn3C)c1)C(=O)O (single isomer, unassigned) [Compound 125A]",B (a value above 5 °C and less than or equal to 10 °C is marked “B”),B (a value between 12-20 is marked “B”)
"C[C@@H](Cc1cccc(C2(C)CCCC(C)(C)CS(=O)(=O)CCc3c(c(F)cc4[nH]ccc34)C(=O)c3ccc(F)c(c3)-c3nc2nn3C)c1)C(=O)O (single isomer, unassigned) [Compound 125B]",C (a value greater than 10 °C and less than or equal to 25 °C is marked “C”),B (a value between 12-20 is marked “B”)
